ChEMBL document CHEMBL1201862, “PubChem BioAssay data set” (2004)
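1) Cells in 96-well plates. 2) Compound, 48 h, 5 concentrations. 3) Linear interpolation between surrounding doses. 4) Unreached endpoint = highest concentration. GI50: concentration for 50% inhibition of growth.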 Calls of active or inactive are those of the source. Rule as the data show it: active = GI50 up to about 1.1 µM and inactive = higher.

Legend:
Assay in all cases: NCI-60 cell line screen, 48 h
NCI-H460 = system: NCI-H460
BT-549 = system: BT-549
SN12C = system: SN12C
M14 = system: M14
CCRF-CEM = system: CCRF-CEM
A498 = system: A498
SK-MEL-5 = system: SK-MEL-5
HT-29 = system: HT-29
MDA-MB-231 = system: MDA-MB-231
KM12 = system: KM12
SR = system: SR
SF-268 = system: SF-268
NCI-H226 = system: NCI-H226
A549 = system: A549
ACHN = system: ACHN
PC-3 = system: PC-3
UACC-62 = system: UACC-62
MDA-N = system: MDA-N
U-251 = system: U-251
HOP-92 = system: HOP-92

Structure (SMILES) | GI50 (NCI-H460) | GI50 (BT-549) | GI50 (SN12C) | GI50 (M14) | GI50 (CCRF-CEM) | GI50 (A498) | GI50 (SK-MEL-5) | GI50 (HT-29) | GI50 (MDA-MB-231) | GI50 (KM12) | GI50 (SR) | GI50 (SF-268) | GI50 (NCI-H226) | GI50 (A549) | GI50 (ACHN) | GI50 (PC-3) | GI50 (UACC-62) | GI50 (MDA-N) | GI50 (U-251) | GI50 (HOP-92)
Nc1nc(SCc2ccccn2)c2ncn(C3CCCC3)c2n1 | > 100 µM (inactive) | > 100 µM (inactive) | > 100 µM (inactive) | > 100 µM (inactive) | > 100 µM (inactive) | > 100 µM (inactive) | > 100 µM (inactive) | > 100 µM (inactive) | > 100 µM (inactive) | > 100 µM (inactive) | > 100 µM (inactive) | 70.5 µM (inactive) | > 100 µM (inactive) | > 100 µM (inactive) | > 100 µM (inactive) | > 100 µM (inactive) | > 100 µM (inactive) | > 100 µM (inactive) | > 100 µM (inactive) | –
N#C/C=C(/NC(=O)Nc1ccccc1)N1CCCC1 | > 37.5 µM (inactive) | > 67.5 µM (inactive) | > 86.3 µM (inactive) | > 49 µM (inactive) | > 100 µM (inactive) | > 100 µM (inactive) | 56.4 µM (inactive) | > 72.6 µM (inactive) | > 55.8 µM (inactive) | > 54.8 µM (inactive) | > 100 µM (inactive) | > 32.3 µM (inactive) | > 42 µM (inactive) | > 40.7 µM (inactive) | > 38.7 µM (inactive) | > 35.3 µM (inactive) | > 82.6 µM (inactive) | > 100 µM (inactive) | > 36.8 µM (inactive) | > 48 µM (inactive)
CCOC(=O)n1c(=O)nc2c3c(ncn21)Oc1c(c(-c2ccccc2)nn1-c1ccccc1)C3c1ccc(Cl)cc1 (configuration not stated) | 1.68 µM (inactive) | 1.57 µM (inactive) | 1.82 µM (inactive) | 1.92 µM (inactive) | 1.1 µM (active) | 1.79 µM (inactive) | 1.7 µM (inactive) | 1.75 µM (inactive) | 1.4 µM (inactive) | 1.56 µM (inactive) | 1.35 µM (inactive) | 1.58 µM (inactive) | 1.63 µM (inactive) | 1.65 µM (inactive) | 1.71 µM (inactive) | 1.73 µM (inactive) | 1.7 µM (inactive) | 1.65 µM (inactive) | 1.69 µM (inactive) | 1.36 µM (inactive)
O=C(c1ccccc1)c1ccc2[nH]c(-c3c(Cl)c(Cl)c(Cl)c(Cl)c3C(=O)Nc3ccco3)nc2c1 | 33.5 µM (inactive) | 22.2 µM (inactive) | 48.2 µM (inactive) | 36.7 µM (inactive) | 26.9 µM (inactive) | 20 µM (inactive) | 28.4 µM (inactive) | 28.4 µM (inactive) | 34.4 µM (inactive) | 33 µM (inactive) | 12.6 µM (inactive) | 27 µM (inactive) | 54.2 µM (inactive) | 26.5 µM (inactive) | > 100 µM (inactive) | 17.1 µM (inactive) | 49.5 µM (inactive) | 15.3 µM (inactive) | 42.5 µM (inactive) | 40.5 µM (inactive)
CC(NC(=O)OC(C)(C)C)C(=O)NC(Cc1ccccc1)C(=O)NCC(=O)Oc1c(Cl)c(Cl)c(Cl)c(Cl)c1Cl (configuration not stated) | 25.6 µM (inactive) | 23.5 µM (inactive) | 14.5 µM (inactive) | 26.2 µM (inactive) | – | 21.2 µM (inactive) | 13.6 µM (inactive) | 23.7 µM (inactive) | 16.6 µM (inactive) | 25 µM (inactive) | 25 µM (inactive) | – | 17.7 µM (inactive) | 19.5 µM (inactive) | 25 µM (inactive) | 20.3 µM (inactive) | 22.3 µM (inactive) | 28.2 µM (inactive) | 19.7 µM (inactive) | 12.5 µM (inactive)
Nc1nncc2[nH]nnc12 | > 100 µM (inactive) | > 100 µM (inactive) | > 100 µM (inactive) | > 100 µM (inactive) | 11 µM (inactive) | > 100 µM (inactive) | 16.5 µM (inactive) | > 100 µM (inactive) | > 100 µM (inactive) | > 100 µM (inactive) | 22.9 µM (inactive) | > 100 µM (inactive) | > 100 µM (inactive) | > 100 µM (inactive) | > 100 µM (inactive) | > 100 µM (inactive) | > 100 µM (inactive) | > 100 µM (inactive) | > 100 µM (inactive) | –
CCC(NC(C)c1ccccc1)C(=O)c1ccc(OCc2ccccc2)c(OCc2ccccc2)c1 (configuration not stated) | > 100 µM (inactive) | > 100 µM (inactive) | > 100 µM (inactive) | > 100 µM (inactive) | – | – | > 100 µM (inactive) | > 100 µM (inactive) | > 100 µM (inactive) | > 100 µM (inactive) | > 100 µM (inactive) | > 100 µM (inactive) | > 100 µM (inactive) | > 100 µM (inactive) | > 100 µM (inactive) | > 100 µM (inactive) | > 100 µM (inactive) | > 100 µM (inactive) | > 100 µM (inactive) | > 100 µM (inactive)
CCN1CN(c2ccccc2)C2(CCN(CCCSc3ccc(F)cc3)CC2)C1=O | – | 8.61 µM (inactive) | 8.47 µM (inactive) | 6.75 µM (inactive) | 4.24 µM (inactive) | – | 2.82 µM (inactive) | 3.36 µM (inactive) | 12.7 µM (inactive) | 14.3 µM (inactive) | 11.8 µM (inactive) | 13.9 µM (inactive) | 16.8 µM (inactive) | 6.12 µM (inactive) | 4.7 µM (inactive) | 11.8 µM (inactive) | 15.1 µM (inactive) | 11.7 µM (inactive) | > 10 µM (inactive) | –
O=C1c2ccccc2NC(c2cc(Cl)cc(Cl)c2O)N1CCc1ccccn1 (configuration not stated) | 56.2 µM (inactive) | > 100 µM (inactive) | 69.8 µM (inactive) | 64.4 µM (inactive) | – | > 100 µM (inactive) | > 100 µM (inactive) | 80.9 µM (inactive) | > 100 µM (inactive) | 64 µM (inactive) | 47.5 µM (inactive) | > 100 µM (inactive) | > 100 µM (inactive) | 48.6 µM (inactive) | 87.3 µM (inactive) | 24 µM (inactive) | > 100 µM (inactive) | 97.9 µM (inactive) | 39.8 µM (inactive) | 52.7 µM (inactive)
COC1=CC2=NCCc3n[nH]c(c32)C1=O | 27 µM (inactive) | 16.9 µM (inactive) | 13.7 µM (inactive) | 15 µM (inactive) | – | 23.5 µM (inactive) | 18.3 µM (inactive) | 13 µM (inactive) | 14.5 µM (inactive) | 28.1 µM (inactive) | 13.4 µM (inactive) | – | – | 24.3 µM (inactive) | 19.2 µM (inactive) | 19.5 µM (inactive) | 14 µM (inactive) | 10.9 µM (inactive) | 16.7 µM (inactive) | –
Cn1cnc(C(N)=[Se])c1N | 0.183 µM (active) | 1.13 µM (inactive) | 2.29 µM (inactive) | 4.44 µM (inactive) | 2.24 µM (inactive) | 16.4 µM (inactive) | 3.21 µM (inactive) | 5.35 µM (inactive) | 2.07 µM (inactive) | 2.33 µM (inactive) | – | 1.95 µM (inactive) | 3.11 µM (inactive) | 1.71 µM (inactive) | 2.6 µM (inactive) | 2.24 µM (inactive) | 2 µM (inactive) | 4.98 µM (inactive) | 1.35 µM (inactive) | 6.56 µM (inactive)
Cc1ccc(N2C3=C(CC4=C2CC(C)(C)CC4=O)C(=O)CC(C)(C)C3)cc1 | > 100 µM (inactive) | > 100 µM (inactive) | > 100 µM (inactive) | > 100 µM (inactive) | > 100 µM (inactive) | > 100 µM (inactive) | > 100 µM (inactive) | > 100 µM (inactive) | > 100 µM (inactive) | > 100 µM (inactive) | > 100 µM (inactive) | > 100 µM (inactive) | > 100 µM (inactive) | > 100 µM (inactive) | > 100 µM (inactive) | > 100 µM (inactive) | > 100 µM (inactive) | > 100 µM (inactive) | > 100 µM (inactive) | –
COC(=O)C1=C(C(=O)OC)SC(=C2SC3=C(SC(=C4SCCS4)S3)S2)S1 | – | > 100 µM (inactive) | > 100 µM (inactive) | > 100 µM (inactive) | > 100 µM (inactive) | > 100 µM (inactive) | > 100 µM (inactive) | > 100 µM (inactive) | > 100 µM (inactive) | > 100 µM (inactive) | > 100 µM (inactive) | > 100 µM (inactive) | > 100 µM (inactive) | > 100 µM (inactive) | > 100 µM (inactive) | > 100 µM (inactive) | > 100 µM (inactive) | > 100 µM (inactive) | 93.1 µM (inactive) | > 100 µM (inactive)
CCN(CC)C(=S)N/N=C(/c1ccccc1)c1ccccn1 | 0.0783 µM (active) | 0.471 µM (active) | 0.214 µM (active) | 0.0618 µM (active) | 0.024 µM (active) | 0.311 µM (active) | 0.209 µM (active) | < 0.0246 µM (active) | 0.0265 µM (active) | 0.0942 µM (active) | 0.106 µM (active) | 0.0256 µM (active) | 1.66 µM (inactive) | 0.349 µM (active) | 0.264 µM (active) | 0.212 µM (active) | – | 1.07 µM (active) | 0.0995 µM (active) | 1.65 µM (inactive)
CCOC1CCN(C(=O)c2ccccc2)O1 (configuration not stated) | > 10 µM (inactive) | > 10 µM (inactive) | > 10 µM (inactive) | > 10 µM (inactive) | > 10 µM (inactive) | – | > 10 µM (inactive) | > 10 µM (inactive) | > 10 µM (inactive) | – | > 10 µM (inactive) | > 10 µM (inactive) | > 10 µM (inactive) | > 10 µM (inactive) | > 10 µM (inactive) | > 10 µM (inactive) | – | > 10 µM (inactive) | – | –
